Reference: ChEMBL document CHEMBL3885861, “Open TG-GATES”

Organism: Rattus norvegicus
Test: Open TG-GATES - Regimen: Daily Repeat
Type: toxicity, organism-based, Sprague-Dawley
Set-up: regimen Daily Repeat, gender Male, age 6 weeks
Conditions: in vivo, po, 15 mg/kg, route gavage, dose level Low; for APTT / Bas / Eos / Fbg / Hb / Ht / Lym / MCH / MCHC / MCV / Mono / Neu / PT / Plat / RBC / Ret / WBC: tissue Blood; for KIDNEY_L / KIDNEY_R / KIDNEY_TOTAL: tissue Kidney; for LIVER: tissue Liver; for A/G / ALP / ALT / AST / BUN / CRE / Ca / Cl / DBIL / GLC / IP / K / LDH / Na / PL / RALB / TBIL / TC / TG / TP / gamma-GTP: tissue Plasma

With `CC(C)C(=O)Nc1ccc([N+](=O)[O-])c(C(F)(F)F)c1` [FLUTAMIDE] the TERMINAL_BW (72 h, time 3 day) was 223.1 g, the APTT (72 h, time 3 day) was 18.7 s and the Bas (72 h, time 3 day) was 0%. It also gave an Eos (72 h, time 3 day) of 1%, a Fbg (72 h, time 3 day) of 224.2 mg/dL and a Hb (72 h, time 3 day) of 14 g/dL. It also gave a Ht (72 h, time 3 day) of 41.8%, a Lym (72 h, time 3 day) of 75.2% and an MCH (72 h, time 3 day) of 21.6 pg. It also gave an MCHC (72 h, time 3 day) of 33.6%, an MCV (72 h, time 3 day) of 64.4 fL and a Mono (72 h, time 3 day) of 3.2%. The Neu (72 h, time 3 day) was 19.4%, the PT (72 h, time 3 day) was 12.3 s and the Plat (72 h, time 3 day) was 119.4 x10_4/uL. The RBC (72 h, time 3 day) was 649.4 x10_4/ul, the Ret (72 h, time 3 day) was 5.7% and the WBC (72 h, time 3 day) was 84.8 x10_2/uL. The KIDNEY_L (72 h, time 3 day) was 1 g, the KIDNEY_R (72 h, time 3 day) was 1 g and the KIDNEY_TOTAL (72 h, time 3 day) was 1.9 g. It also gave an LIVER (72 h, time 3 day) of 11.2 g, an A/G (72 h, time 3 day) of 1.8 and an ALP (72 h, time 3 day) of 847 IU/L. It also gave an ALT (72 h, time 3 day) of 40 IU/L, an AST (72 h, time 3 day) of 66.8 IU/L and a BUN (72 h, time 3 day) of 14.4 mg/dL. For the same compound, the CRE (72 h, time 3 day) was 0.4 mg/dL, the Ca (72 h, time 3 day) was 10.9 mg/dL and the Cl (72 h, time 3 day) was 104.2 meq/L. The DBIL (72 h, time 3 day) was 0.1 mg/dL, the GLC (72 h, time 3 day) was 216.8 mg/dL and the IP (72 h, time 3 day) was 7.1 mg/dL. It also gave a K (72 h, time 3 day) of 3.9 meq/L, an LDH (72 h, time 3 day) of 177.6 IU/L and a Na (72 h, time 3 day) of 140.8 meq/L. The PL (72 h, time 3 day) was 157.4 mg/dL, the RALB (72 h, time 3 day) was 3.6 g/dL and the TBIL (72 h, time 3 day) was 0.2 mg/dL. The TC (72 h, time 3 day) was 86.6 mg/dL, the TG (72 h, time 3 day) was 86.2 mg/dL and the TP (72 h, time 3 day) was 5.6 g/dL. The gamma-GTP (72 h, time 3 day) was 1.2 IU/L, the TERMINAL_BW ([…], time 7 day) was 248.2 g and the TERMINAL_BW ([…], time 14 day) was 294.4 g. The TERMINAL_BW ([…], time 28 day) was 340.6 g, the APTT ([…], time 7 day) was 19.1 s and the Bas ([…], time 7 day) was 0%. For the same compound, the Eos ([…], time 7 day) was 1%, the Fbg ([…], time 7 day) was 217.8 mg/dL and the Hb ([…], time 7 day) was 13.6 g/dL. The Ht ([…], time 7 day) was 40.3%, the Lym ([…], time 7 day) was 84.6% and the MCH ([…], time 7 day) was 20.8 pg. It also gave an MCHC ([…], time 7 day) of 33.7%, an MCV ([…], time 7 day) of 61.6 fL and a Mono ([…], time 7 day) of 2%. For the same compound, the Neu ([…], time 7 day) was 12.2%, the PT ([…], time 7 day) was 12.3 s and the Plat ([…], time 7 day) was 124.4 x10_4/uL. The RBC ([…], time 7 day) was 654.8 x10_4/ul, the Ret ([…], time 7 day) was 4.6% and the WBC ([…], time 7 day) was 149.8 x10_2/uL. It also gave an APTT ([…], time 14 day) of 20.6 s, a Bas ([…], time 14 day) of 0% and an Eos ([…], time 14 day) of 0.6%. For the same compound, the Fbg ([…], time 14 day) was 228.4 mg/dL, the Hb ([…], time 14 day) was 14.3 g/dL and the Ht ([…], time 14 day) was 41.8%. For the same compound, the Lym ([…], time 14 day) was 82.4%, the MCH ([…], time 14 day) was 20.9 pg and the MCHC ([…], time 14 day) was 34.2%. For the same compound, the MCV ([…], time 14 day) was 61.1 fL, the Mono ([…], time 14 day) was 2.4% and the Neu ([…], time 14 day) was 13.4%. It also gave a PT ([…], time 14 day) of 12.3 s, a Plat ([…], time 14 day) of 104.8 x10_4/uL and an RBC ([…], time 14 day) of 684.6 x10_4/ul. The Ret ([…], time 14 day) was 3.8%, the WBC ([…], time 14 day) was 112.5 x10_2/uL and the APTT ([…], time 28 day) was 19.6 s. For the same compound, the Bas ([…], time 28 day) was 0%, the Eos ([…], time 28 day) was 1.2% and the Fbg ([…], time 28 day) was 229.2 mg/dL. For the same compound, the Hb ([…], time 28 day) was 15.1 g/dL, the Ht ([…], time 28 day) was 42.7% and the Lym ([…], time 28 day) was 82%. The MCH ([…], time 28 day) was 20 pg, the MCHC ([…], time 28 day) was 35.4% and the MCV ([…], time 28 day) was 56.4 fL. It also gave a Mono ([…], time 28 day) of 2.2%, a Neu ([…], time 28 day) of 13.6% and a PT ([…], time 28 day) of 12.4 s. For the same compound, the Plat ([…], time 28 day) was 106.7 x10_4/uL, the RBC ([…], time 28 day) was 758.8 x10_4/ul and the Ret ([…], time 28 day) was 2.1%. For the same compound, the WBC ([…], time 28 day) was 99.2 x10_2/uL, the KIDNEY_L ([…], time 7 day) was 1.1 g and the KIDNEY_R ([…], time 7 day) was 1.1 g. It also gave a KIDNEY_TOTAL ([…], time 7 day) of 2.1 g, a KIDNEY_L ([…], time 14 day) of 1.2 g and a KIDNEY_R ([…], time 14 day) of 1.2 g. The KIDNEY_TOTAL ([…], time 14 day) was 2.3 g, the KIDNEY_L ([…], time 28 day) was 1.3 g and the KIDNEY_R ([…], time 28 day) was 1.2 g. The KIDNEY_TOTAL ([…], time 28 day) was 2.5 g, the LIVER ([…], time 7 day) was 12.1 g and the LIVER ([…], time 14 day) was 13.5 g. For the same compound, the LIVER ([…], time 28 day) was 13.8 g, the A/G ([…], time 7 day) was 1.5 and the ALP ([…], time 7 day) was 979.6 IU/L. The ALT ([…], time 7 day) was 37.6 IU/L, the AST ([…], time 7 day) was 62.6 IU/L and the BUN ([…], time 7 day) was 15.8 mg/dL. The CRE ([…], time 7 day) was 0.5 mg/dL, the Ca ([…], time 7 day) was 10.7 mg/dL and the Cl ([…], time 7 day) was 104.2 meq/L. For the same compound, the DBIL ([…], time 7 day) was 0.088 mg/dL, the GLC ([…], time 7 day) was 214.2 mg/dL and the IP ([…], time 7 day) was 7.4 mg/dL. It also gave a K ([…], time 7 day) of 4.1 meq/L, an LDH ([…], time 7 day) of 195.6 IU/L and a Na ([…], time 7 day) of 140.6 meq/L. For the same compound, the PL ([…], time 7 day) was 145 mg/dL, the RALB ([…], time 7 day) was 3.5 g/dL and the TBIL ([…], time 7 day) was 0.1 mg/dL. It also gave a TC ([…], time 7 day) of 74.2 mg/dL, a TG ([…], time 7 day) of 83.2 mg/dL and a TP ([…], time 7 day) of 5.8 g/dL. It also gave a gamma-GTP ([…], time 7 day) of 1.2 IU/L, an A/G ([…], time 14 day) of 1.5 and an ALP ([…], time 14 day) of 728 IU/L. It also gave an ALT ([…], time 14 day) of 33.4 IU/L, an AST ([…], time 14 day) of 57.2 IU/L and a BUN ([…], time 14 day) of 12.8 mg/dL. For the same compound, the CRE ([…], time 14 day) was 0.5 mg/dL, the Ca ([…], time 14 day) was 10.7 mg/dL and the Cl ([…], time 14 day) was 104 meq/L. For the same compound, the DBIL ([…], time 14 day) was 0.09 mg/dL, the GLC ([…], time 14 day) was 200.4 mg/dL and the IP ([…], time 14 day) was 6.3 mg/dL. The K ([…], time 14 day) was 3.9 meq/L, the LDH ([…], time 14 day) was 137.8 IU/L and the Na ([…], time 14 day) was 141.2 meq/L. For the same compound, the PL ([…], time 14 day) was 149 mg/dL, the RALB ([…], time 14 day) was 3.4 g/dL and the TBIL ([…], time 14 day) was 0.1 mg/dL. It also gave a TC ([…], time 14 day) of 77.6 mg/dL, a TG ([…], time 14 day) of 96.4 mg/dL and a TP ([…], time 14 day) of 5.7 g/dL. It also gave a gamma-GTP ([…], time 14 day) of 0.6 IU/L, an A/G ([…], time 28 day) of 1.4 and an ALP ([…], time 28 day) of 460.2 IU/L. For the same compound, the ALT ([…], time 28 day) was 34 IU/L, the AST ([…], time 28 day) was 54.4 IU/L and the BUN ([…], time 28 day) was 16.8 mg/dL. The CRE ([…], time 28 day) was 0.5 mg/dL, the Ca ([…], time 28 day) was 10.3 mg/dL and the Cl ([…], time 28 day) was 103.6 meq/L. The DBIL ([…], time 28 day) was 0.07 mg/dL, the GLC ([…], time 28 day) was 226.2 mg/dL and the IP ([…], time 28 day) was 6.1 mg/dL. The K ([…], time 28 day) was 3.4 meq/L, the LDH ([…], time 28 day) was 126.8 IU/L and the Na ([…], time 28 day) was 141.4 meq/L. It also gave a PL ([…], time 28 day) of 147 mg/dL, an RALB ([…], time 28 day) of 3.6 g/dL and a TBIL ([…], time 28 day) of 0.1 mg/dL. It also gave a TC ([…], time 28 day) of 83.4 mg/dL, a TG ([…], time 28 day) of 51.2 mg/dL and a TP ([…], time 28 day) of 6.2 g/dL. For the same compound, the gamma-GTP ([…], time 28 day) was 0.4 IU/L.
